Reference: patent US8598087B2, “Crystalline form of 4-[5-[3-chloro-5-(trifluoromethyl)phenyl]-4, 5-dihydro-5-(trifluoromethyl)-3-isoxazolyl]-N-[2-0X0-2-[(2,2,2-trifluoroethyl)amino]ethyl]-1- naph-thalenecarboxamide” (E. I. du Pont de Nemours and Company, priority 2010, dated 2013)
“Also recorded” adds a separate entry of the source.

Experiments:
Type in all cases: physicochemical
[1] = Interconversion slurry experiments (relative stability of solid forms, XRPD)
Experimental: Interconversion slurry experiments were performed in a variety of solvents at different temperatures. Sufficient amounts of Compound 1 were added to solvents in vials so that excess solid remained. The mixtures were agitated in sealed vials at the selected temperature and the solids were isolated by filtration after the selected time and analyzed by XRPD.

Vacuum drying experiment = assay: Vacuum drying experiment
[2] = Physical stability of polymorph Form B under humidity stress (XRPD)
[3] = Physical stability / hygroscopicity of polymorph Form A (relative humidity exposure); conditions: 5 to 95% relative humidity at 25° C. (5 hours)
Experimental: The physical stability of polymorph Form A was characterized. A samples of Form A exposed to 5 to 95% relative humidity at 25° C.

[4] = Physical stability of amorphous Compound 1 (vapor stress and slurry, XRPD)
Experimental: The physical stability of the amorphous material was characterized. […] Amorphous Compound 1 was also slurried in methanol\water (1:1) for 5 days at 60° C. resulting in irregular fragments of crystals determined to be Form B by XRPD.

With `O=C(CNC(=O)c1ccc(C2=NOC(c3cc(Cl)cc(C(F)(F)F)c3)(C(F)(F)F)C2)c2ccccc12)NCC(F)(F)F` (centres unmarked) [Pattern G solid] the “relative physical stability of solid forms” value (from here on “relative physical stability”) ([1]; in acetonitrile) was “most stable solid form”, the “solid form obtained after vacuum drying” value (Vacuum drying experiment; vacuum drying (36-68 mtorr) at 50° C. for 4 hours) was “Form A” and the “solid form obtained after vacuum drying” value (Vacuum drying experiment; vacuum drying (51 mtorr) at 70° C. for 5 hours) was “solid glass”.
In the case of `O=C(CNC(=O)c1ccc(C2=NOC(c3cc(Cl)cc(C(F)(F)F)c3)(C(F)(F)F)C2)c2ccccc12)NCC(F)(F)F` (racemic) [Compound 1, 4-[5-[3-chloro-5-(trifluoromethyl)phenyl]-4,5-dihydro-5-(trifluoromethyl)-3-isoxazolyl]-N-[2-oxo-2-[(2,2,2-trifluoroethyl)amino]ethyl]-1-naphthalenecarboxamide], the “solid form yielded by slurry (XRPD)” value ([1]; acetonitrile, 3 days at 83° C.) was “Pattern G solid”, the “solid form yielded by slurry (XRPD)” value ([1]; acetonitrile, 8 days at 0° C.) was “Pattern G solid” and the “solid form yielded by slurry (XRPD)” value ([1]; acetonitrile/water (9:1), 3 days at 83° C.) was “polymorph Form B”. The “solid form yielded by slurry (XRPD)” value ([1]; acetonitrile/water (9:1), 8 days at 0° C.) was “Pattern G solid”.
For `O=C(CNC(=O)c1ccc(C2=NOC(c3cc(Cl)cc(C(F)(F)F)c3)(C(F)(F)F)C2)c2ccccc12)NCC(F)(F)F` (centres unmarked) [Form B, 4-[5-[3-chloro-5-(trifluoromethyl)phenyl]-4,5-dihydro-5-(trifluoromethyl)-3-isoxazolyl]-N-[2-oxo-2-[(2,2,2-trifluoroethyl)amino]ethyl]-1-naphthalenecarboxamide], the “relative physical stability” value ([1]; in organic solvent/water mixtures especially methanol/water) was “most stable solid form”, the “change by XRPD after humidity stress” value ([2]; 60% relative humidity (25° C.) for 1 month) was “unchanged by XRPD” and the “change by XRPD after humidity stress” value ([2]; 75% relative humidity (40° C.) for 1 month) was “unchanged by XRPD”. For the same molecule, the “physical stability of Form B” value ([2]; pure solid form, conclusion of humidity stress conditions tested) was “physically stable; also recorded: stable under the conditions tested”.
In the case of `O=C(CNC(=O)c1ccc(C2=NOC(c3cc(Cl)cc(C(F)(F)F)c3)(C(F)(F)F)C2)c2ccccc12)NCC(F)(F)F` (centres unmarked) [Form A, 4-[5-[3-chloro-5-(trifluoromethyl)phenyl]-4,5-dihydro-5-(trifluoromethyl)-3-isoxazolyl]-N-[2-oxo-2-[(2,2,2-trifluoroethyl)amino]ethyl]-1-naphthalenecarboxamide], the “relative physical stability” value ([1]; in acetonitrile) was “metastable solid form”, the hygroscopicity [3] was “non-hygroscopic” and the “weight change on exposure to relative humidity” value [3] was “negligible weight change”.
With `O=C(CNC(=O)c1ccc(C2=NOC(c3cc(Cl)cc(C(F)(F)F)c3)(C(F)(F)F)C2)c2ccccc12)NCC(F)(F)F` (centres unmarked) [Amorphous Compound 1, 4-[5-[3-chloro-5-(trifluoromethyl)phenyl]-4,5-dihydro-5-(trifluoromethyl)-3-isoxazolyl]-N-[2-oxo-2-[(2,2,2-trifluoroethyl)amino]ethyl]-1-naphthalenecarboxamide] the “physical stability of the amorphous solid” value ([4]; pure solid form, conclusion of vapor stress and slurry) was “physically unstable and readily crystallized”, the “solid form obtained after slurry (by XRPD)” value ([4]; slurried in methanol\water (1:1) for 5 days at 60° C.) was “Form B” and the “solid form obtained after vapor stress (by XRPD)” value ([4]; vapor stressed under acetonitrile at 25° C. for 2 days) was “Pattern G material”.
